Laboratory results reported in patent publication US10770169B2, “Method of providing a treatment to a subject based on a dynamic pathway map” (THE REGENTS OF THE UNIVERSITY OF CALIFORNIA, priority 2010, dated 2020).
Read-outs that look alike come from different tables or passages of the source.

Tested on: panel of 55 breast cancer cell lines
Assay: Cell growth inhibition assay (Cell Titer Glo, 72 h, 9 doses; GI50, TGI, LC50)
Format: cell-based, human
Conditions: Homo sapiens, read-out: GI50 (converted)
[1] = AU565, AU565 cell line, censored GI50 values
[2] = BT-474, BT474 cell line, censored GI50 values
[3] = BT-483, BT483 cell line, censored GI50 values
[4] = CAMA-1, CAMA1 cell line, censored GI50 values
[5] = HCC38, HCC38 cell line, censored GI50 values
[6] = HCC70, HCC70 cell line, censored GI50 values
[7] = HCC202, HCC202 cell line, censored GI50 values
[8] = HCC1143, HCC1143 cell line, censored GI50 values
[9] = HCC1187, HCC1187 cell line, censored GI50 values
[10] = HCC1395, HCC1395 cell line, censored GI50 values
[11] = HCC1419, HCC1419 cell line, censored GI50 values
[12] = HCC1428, HCC1428 cell line, censored GI50 values
[13] = HCC1500, HCC1500 cell line, censored GI50 values
[14] = HCC1806, HCC1806 cell line, censored GI50 values
[15] = HCC1954, HCC1954 cell line, censored GI50 values
[16] = HCC2185 cell line, censored GI50 values
[17] = HCC3153 cell line, censored GI50 values
[18] = LY2 cell line, censored GI50 values
[19] = MCF7, MCF7 cell line, censored GI50 values
[20] = MDA-MB-134-VI, MDAMB134VI cell line, censored GI50 values
[21] = MDA-MB-175-VII, MDAMB175VII cell line, censored GI50 values
[22] = MDA-MB-231, MDAMB231 cell line, censored GI50 values
[23] = MDA-MB-361, MDAMB361 cell line, censored GI50 values
[24] = MDA-MB-415, MDAMB415 cell line, censored GI50 values
[25] = MDA-MB-436, MDAMB436 cell line, censored GI50 values
[26] = MDA-MB-453, MDAMB453 cell line, censored GI50 values
[27] = MDA-MB-468, MDAMB468 cell line, censored GI50 values
[28] = SK-BR-3, SKBR3 cell line, censored GI50 values
[29] = SUM52PE, SUM52PE cell line, censored GI50 values
[30] = SUM185PE, SUM185PE cell line, censored GI50 values
[31] = SUM1315MO2, SUM1315MO2 cell line, censored GI50 values
[32] = SUM-159-PT, SUM159PT cell line, censored GI50 values
[33] = UACC-812, UACC812 cell line, censored GI50 values
[34] = UACC-893, UACC893 cell line, censored GI50 values
[35] = ZR-75-1, ZR751 cell line, censored GI50 values
[36] = ZR-75B, ZR75B cell line, censored GI50 values

Molecule COC1=C2C[C@@H](C)C[C@H](OC)[C@H](O)[C@@H](C)/C=C(\C)[C@H](OC(N)=O)[C@@H](OC)/C=C\C=C(/C)C(=O)NC(=CC1=O)C2=O [Geldanamycin] has a GI50 (600MPE cell line, censored GI50 values) of 38.9 nM, a GI50 [1] of 51.3 nM and a GI50 (AU565, cell line AU565) of 51.3 nM. For the same molecule, the GI50 [2] was 14.5 nM, the GI50 (BT-474, cell line BT474) was 14.5 nM and the GI50 [3] was 145 nM. It also gave a GI50 (BT-483, cell line BT483) of 145 nM, a GI50 (BT-549, BT549 cell line, censored GI50 values) of 5.5 nM and a GI50 (BT-549, cell line BT549) of 5.5 nM. For the same molecule, the GI50 [4] was 79.4 nM, the GI50 (CAMA-1, cell line CAMA1) was 79.4 nM and the GI50 [5] was 28.8 nM. The GI50 (HCC38, cell line HCC38) was 28.8 nM, the GI50 [6] was 93.3 nM and the GI50 (HCC70, cell line HCC70) was 93.3 nM. For the same molecule, the GI50 [7] was 1.48 nM, the GI50 (HCC202, cell line HCC202) was 1.48 nM and the GI50 [8] was 81.3 nM. The GI50 (HCC1143, cell line HCC1143) was 81.3 nM, the GI50 [9] was 15.8 nM and the GI50 (HCC1187, cell line HCC1187) was 15.8 nM. For the same molecule, the GI50 [10] was 61.7 nM, the GI50 (HCC1395, cell line HCC1395) was 61.7 nM and the GI50 [11] was 32.4 nM. For the same molecule, the GI50 (HCC1419, cell line HCC1419) was 32.4 nM, the GI50 [12] was 31.6 nM and the GI50 (HCC1428, cell line HCC1428) was 31.6 nM. The GI50 [13] was 155 nM, the GI50 (HCC1500, cell line HCC1500) was 155 nM and the GI50 [14] was 75.9 nM. It also gave a GI50 (HCC1806, cell line HCC1806) of 75.9 nM, a GI50 (HCC1937, HCC1937 cell line, censored GI50 values) of 29.5 nM and a GI50 (HCC1937, cell line HCC1937) of 29.5 nM. It also gave a GI50 [15] of 7.24 nM, a GI50 (HCC1954, cell line HCC1954) of 7.24 nM and a GI50 [16] of 18.2 nM. For the same molecule, the GI50 [17] was 67.6 nM, the GI50 [18] was 100 nM and the GI50 [19] was 240 nM. The GI50 (MCF7, cell line MCF7) was 240 nM, the GI50 [20] was 20.9 nM and the GI50 [21] was 17.8 nM. For the same molecule, the GI50 [22] was 28.8 nM, the GI50 (MDA-MB-231, cell line MDAMB231) was 28.8 nM and the GI50 [23] was 25.7 nM. It also gave a GI50 (MDA-MB-361, cell line MDAMB361) of 25.7 nM, a GI50 [24] of 57.5 nM and a GI50 (MDA-MB-415, cell line MDAMB415) of 57.5 nM. It also gave a GI50 [25] of 148 nM, a GI50 (MDA-MB-436, cell line MDAMB436) of 148 nM and a GI50 [26] of 19.5 nM. For the same molecule, the GI50 (MDA-MB-453, cell line MDAMB453) was 19.5 nM, the GI50 [27] was 27.5 nM and the GI50 (MDA-MB-468, cell line MDAMB468) was 27.5 nM. It also gave a GI50 [28] of 16.2 nM, a GI50 (SK-BR-3, cell line SKBR3) of 16.2 nM and a GI50 [29] of 12 nM. It also gave a GI50 (SUM52PE, cell line SUM52PE) of 12 nM, a GI50 (SUM149PT, SUM149PT cell line, censored GI50 values) of 6.03 nM and a GI50 (SUM149PT, cell line SUM149PT) of 6.03 nM. For the same molecule, the GI50 [30] was 20 nM, the GI50 (SUM185PE, cell line SUM185PE) was 20 nM and the GI50 [31] was 38 nM. It also gave a GI50 [32] of 6.31 nM, a GI50 (SUM-159-PT, cell line SUM159PT) of 6.31 nM and a GI50 [33] of 12.3 nM. The GI50 (UACC-812, cell line UACC812) was 12.3 nM, the GI50 [34] was 11 nM and the GI50 (UACC-893, cell line UACC893) was 11 nM. The GI50 [35] was 117 nM, the GI50 (ZR-75-1, cell line ZR751) was 117 nM and the GI50 (ZR-75-30, ZR7530 cell line, censored GI50 values) was 7.08 nM. The GI50 (ZR-75-30, cell line ZR7530) was 7.08 nM, the GI50 [36] was 93.3 nM and the GI50 (ZR-75B, cell line ZR75B) was 93.3 nM. For the same molecule, the GI50 (cell line 600MPE) was 38.9 nM, the GI50 (cell line HCC2185) was 18.2 nM and the GI50 (cell line HCC3153) was 67.6 nM. For the same molecule, the GI50 (cell line LY2) was 100 nM, the GI50 (cell line MDAMB134V) was 20.9 nM and the GI50 (cell line MDAMB175V) was 17.8 nM. The GI50 (cell line SUM1315MO) was 38 nM.
In the case of CC[C@@]1(O)C(=O)OCc2c1cc1n(c2=O)Cc2cc3c(CN(C)C)c(O)ccc3nc2-1 [Topotecan], the GI50 [1] is reported as 18.6 nM, the GI50 (AU565, cell line AU565) is reported as 18.6 nM and the GI50 [2] is reported as 2510 nM. For the same molecule, the GI50 (BT-474, cell line BT474) was 2510 nM, the GI50 [3] was 16.2 nM and the GI50 (BT-483, cell line BT483) was 16.2 nM. It also gave a GI50 [4] of 398 nM, a GI50 (CAMA-1, cell line CAMA1) of 398 nM and a GI50 [5] of 3.72 nM. For the same molecule, the GI50 (HCC38, cell line HCC38) was 3.72 nM, the GI50 [6] was 19100 nM and the GI50 (HCC70, cell line HCC70) was 19100 nM. It also gave a GI50 [7] of 759 nM, a GI50 (HCC202, cell line HCC202) of 759 nM and a GI50 [8] of 257 nM. For the same molecule, the GI50 (HCC1143, cell line HCC1143) was 257 nM, the GI50 [9] was 309 nM and the GI50 (HCC1187, cell line HCC1187) was 309 nM. For the same molecule, the GI50 [10] was 15.1 nM, the GI50 (HCC1395, cell line HCC1395) was 15.1 nM and the GI50 [11] was 363 nM. The GI50 (HCC1419, cell line HCC1419) was 363 nM, the GI50 [12] was 447 nM and the GI50 (HCC1428, cell line HCC1428) was 447 nM. It also gave a GI50 [13] of 14.5 nM, a GI50 (HCC1500, cell line HCC1500) of 14.5 nM and a GI50 [14] of 20.4 nM. For the same molecule, the GI50 (HCC1806, cell line HCC1806) was 20.4 nM, the GI50 [15] was 302 nM and the GI50 (HCC1954, cell line HCC1954) was 302 nM. The GI50 [16] was 40.7 nM, the GI50 [17] was 209 nM and the GI50 [18] was 257 nM. It also gave a GI50 [19] of 1320 nM, a GI50 (MCF7, cell line MCF7) of 1320 nM and a GI50 [20] of 115 nM. The GI50 (MDA-MB-157, MDAMB157 cell line, censored GI50 values) was 398 nM, the GI50 (MDA-MB-157, cell line MDAMB157) was 398 nM and the GI50 [21] was 2880 nM. For the same molecule, the GI50 [22] was 1170 nM, the GI50 (MDA-MB-231, cell line MDAMB231) was 1170 nM and the GI50 [23] was 525 nM. For the same molecule, the GI50 (MDA-MB-361, cell line MDAMB361) was 525 nM, the GI50 [24] was 191 nM and the GI50 (MDA-MB-415, cell line MDAMB415) was 191 nM. It also gave a GI50 [25] of 30.2 nM, a GI50 (MDA-MB-436, cell line MDAMB436) of 30.2 nM and a GI50 [26] of 85.1 nM. For the same molecule, the GI50 (MDA-MB-453, cell line MDAMB453) was 85.1 nM, the GI50 [27] was 45.7 nM and the GI50 (MDA-MB-468, cell line MDAMB468) was 45.7 nM. For the same molecule, the GI50 [28] was 11.2 nM, the GI50 (SK-BR-3, cell line SKBR3) was 11.2 nM and the GI50 (SUM44PE cell line, censored GI50 values) was 372 nM. For the same molecule, the GI50 [29] was 8.32 nM, the GI50 (SUM52PE, cell line SUM52PE) was 8.32 nM and the GI50 [30] was 63.1 nM. It also gave a GI50 (SUM185PE, cell line SUM185PE) of 63.1 nM, a GI50 [31] of 8.32 nM and a GI50 [32] of 741 nM. The GI50 (SUM-159-PT, cell line SUM159PT) was 741 nM, the GI50 [33] was 60.3 nM and the GI50 (UACC-812, cell line UACC812) was 60.3 nM. The GI50 [34] was 347 nM, the GI50 (UACC-893, cell line UACC893) was 347 nM and the GI50 [35] was 40.7 nM. It also gave a GI50 (ZR-75-1, cell line ZR751) of 40.7 nM, a GI50 [36] of 63.1 nM and a GI50 (ZR-75B, cell line ZR75B) of 63.1 nM. It also gave a GI50 (cell line HCC2185) of 40.7 nM, a GI50 (cell line HCC3153) of 209 nM and a GI50 (cell line LY2) of 257 nM. The GI50 (cell line MDAMB134V) was 115 nM, the GI50 (cell line MDAMB175V) was 2880 nM and the GI50 (cell line SUM44PE) was 372 nM. The GI50 (cell line SUM1315MO) was 8.32 nM.
